# US6593511B1, “Models of chronic and acute inflammatory diseases” (Bioseek, Inc., priority 2000, dated 2003)
# Assays:
# scid/scid mice = assay: Effect of co-factors on disease induction in the scid/scid CD4+/CD25- transfer model; assay type: in vivo, mouse; details: 20 μg s.c. on day one after cell transfer
# Method: Induction of chronic skin inflammation. Briefly, splenocytes were collected from 5-10 week old donor mice (Balb/c) and donor population was either enriched for CD4+ and depleted of CD25+ cells, or depleted of CD25+ cells only. The collected cell population was injected subcutaneously (s.c.) into C.B-17/Icr scid/scid mice, aged 4-8 weeks (usually 3×10^5 to 5×10^5 cells per mouse in 200-400 μL). A systemic (s.c., i.p. or i.v.) injection of an immuno-modulating agent was given 24 hours following cell transfer. Alternatively, these co-injections were given at the same time to one week after. The co-injection was, alternatively, repeated every other day or once a week for the entire course of the experiment.
# After 24 hours all recipient mice were given a co-injection of 20 μg LPS (or 10 μg SEB) s.c. Disease causing T cells then proliferated and began to induce inflammation over a period of 4 weeks
# The thickness of the skin on the ear was measured using a Dyer micrometer. The micrometer was first modified to better perform in the measurement of soft tissue. The contact pads are reduced to 4 mm, and the spring tension is reduced to <3 lbs.
# Co-factor injections are important for their mitogenic properties. […]
# The effect of different co-factors on disease induction was assessed. […]
# psoriatic scid/scid mice = assay: Treatment of established chronic skin inflammation (psoriasis) in scid/scid mice after transfer of CD4+/CD25- T cells and LPS; ear thickness and histology; assay type: in vivo, mouse
# Excerpt: Mice. Female Balb/c mice (donor mice) were purchased from Jackson Labs (Bar Harbor, Me.) or similar source, and C.B-17/Icr scid/scid (recipient mice) were purchased from Taconic (Germantown, N.Y.) or Charles River. All mice were housed in a specific pathogen free environment and were used between 4-8 wk of age. Mice were housed 2-5 per microisolator. All scid/scid mice were handled with gloves under a class II hood, fed sterile food and water ad libitum, and maintained in sterilized microisolators that are changed twice weekly. Donor mice were housed in conventional cages that were changed weekly.
# Induction of chronic skin inflammation. Briefly, splenocytes were collected from 5-10 week old donor mice (Balb/c) and donor population was either enriched for CD4+ and depleted of CD25+ cells, or depleted of CD25+ cells only. The collected cell population was injected subcutaneously (s.c.) into C.B-17/Icr scid/scid mice, aged 4-8 weeks (usually 3×10^5 to 5×10^5 cells per mouse in 200-400 μL). […]
# Cell Selection: Balb/c mouse spleens were collected and homogenized by pressing through 100 μ cell strainer (Falcon) and suspended in cold PBS supplemented with 10% FBS. […] The resultant cell quantities were 5-8 million cells per spleen. […]
# The thickness of the skin on the ear was measured using a Dyer micrometer. […]
Substance,incidence of disease (scid/scid mice; 5/5) [%],"average ear thickness (scid/scid mice; week 7, n=5 mice, +/- SEM, 30 μm+/−1.2 without co-factor, p=3.6×10^−3) [μm]","skin thickness after treatment (psoriatic scid/scid mice; after 8 days of 40 mg/kg twice/day, p=2.01×10^−6) [μm]",skin thickness before treatment (psoriatic scid/scid mice; baseline before 40 mg/kg twice/day for 8 days) [μm]
lipopolysaccharide [LPS],100,36.4,,
methylprednisone,,,22.4,33.7
